Measurements as given in a melting point compilation (Tetko et al.; mined from patent text by program, amines drawn as free bases though some values may be those of a salt).

| melting point [°C] | Compound |
| --- | --- |
| 179 to 186 | NC(=O)N1CC(Oc2ccccc2)C1 |
| 120 to 121 | COc1ccc(COC(=O)n2c(SCc3ccc(C)cn3)nc3cscc32)cc1 |
| 179 | COc1cc(C(=O)N2Cc3ccc(C(=O)NCc4c(CO)cnc(C)c4O)n3Cc3ccccc32)ccc1-c1ccccc1C |
| > 250 | O=S(=O)(O)c1ccc(N(Cc2ccc(F)cc2)Cc2ccc(Cl)cc2)cc1 |
| 176 to 177 | COC(=O)C(=NO)c1nc2cc(C)ccc2oc1=O |
| 137 | COCOc1ccc(-c2cc(S(C)=O)nn2-c2ccc(OC)cc2)cc1 (stereo not given) |
| 129 to 130 | O=C(N[C@H]1CCOC1=O)OCc1ccccc1 |
| 145 | CCOC(=O)CCNC(=S)Nc1ccc2cn[nH]c2c1 |
| 66 | CC(=O)C(=CN(C)C)c1ccccc1 |
| 59 to 60 | CN1C(=O)CC[C@]2(C)c3ccc(-c4ccc([N+](=O)[O-])cc4)cc3CC[C@@H]12 |
| 132 to 134 | O=C(CCl)OCN1C(=O)CN(CCN2CC(=O)N(COC(=O)CCl)C(=O)C2)CC1=O |
| 295 to 296 | Cc1ccc(-c2[nH]c(-c3c(Cl)cccc3Cl)nc2-c2ccncc2)cc1 |
| 110 to 111 | CCC(O)(c1ccc(OCc2cccc(C)n2)cc1)c1ccccc1OC (stereo not given) |
| 182 | CCOC(=O)c1cc(S(=O)(=O)c2ccccc2)c2ccccn2c1=O |
| 176 to 179 | CC(C)(C)CC(C)(C)c1cc(N=Nc2ccc(-c3ccccc3)cc2[N+](=O)[O-])c(O)c(C(C)(C)c2ccccc2)c1 |
| 170 to 172 | CC(C)c1[nH]n(-c2c(Cl)cccc2Cl)c2nc(Cc3ccc(CC(=O)NCCN(C)C)cc3)nc(=O)c1-2 |
| 142 to 148 | CN(C)C=C(C(=O)c1ccc(Cl)cc1)c1ccccc1[N+](=O)[O-] |
| 133 to 134 | c1ccc(-c2nc3ccccc3s2)nc1 |
| 186 to 188 | CCN1CCN(C(=O)c2ccc(-c3[nH]nc4c3C(=O)c3c(NC(=O)NN5CCOCC5)cccc3-4)s2)CC1 |
| 97 to 98 | CCOC(=O)c1cn2c3c(cc(F)cc3c1=O)C1CCCCC12 (stereo not given) |
| 209 to 210 | O=C1Nc2ccncc2C(c2ccccc2)N1C1CCN(Cc2ccccc2)CC1 (stereo not given) |

| melting point [°C] | Compound |
| --- | --- |
| 227 to 230 | Nc1cc(F)c(-n2ccc(=O)cc2)cc1N |
| 135 to 136 | CCOC(=O)C1=C2C(=CC3=C(CCCC3)N2O)SC1C (stereo not given) |
| 245 to 247 | COc1cc2c3c(n(Cc4ccccc4)c2cc1OC)CCCC3C(=O)N1CCN(c2ccccc2)CC1 (stereo not given) |
| 254 | CC(C)(CO)NS(=O)(=O)c1cc(NC(=O)c2cnn3c(C(F)(F)F)cc(-c4ccc(C(F)(F)F)c(Cl)c4)nc23)c(Cl)s1 |
| 142 to 144 | Cc1ccc(CNc2ncnc3c(N4CCOCC4)nc(N4CCC(N(C)C)CC4)nc23)cc1 |
| 241 to 243 | COc1ccc(C#N)cc1-c1cc(-c2cccc(C#N)c2)on1 |
| 145 to 155 | CCc1cccc(NC(=O)NC2CC(C3CCCCC3)c3ccccc3N(CC(=O)NC(C)(C)C)C2=O)c1 (stereo not given) |
| 97 | COCCCN1CC[C@@H](CNC(=O)c2cc(Cl)c(N)c3c2OC(C)(C)C3)[C@H](O)C1 (relative stereo) |
| 186 to 187 | Cc1cc([C@@H](O)[C@@H](C)N2CCC(O)(c3ccc(F)cc3)CC2)cc(C)c1O[Si](C(C)C)(C(C)C)C(C)C (relative stereo) |
| 161 | CC(C)(C)OC(=O)NC(CC(=O)ON1C(=O)CCC1=O)c1ccc(-c2ccccc2)cc1 (stereo not given) |
| 91 to 93 | O=C(O)C1=C(C(=O)Nc2ccc(Cl)cc2F)CCCC1 |
| 158 to 159 | COc1cc(Nc2nccc(C(=O)Nc3ccccc3)n2)cc(OC)c1OC |
| 205 to 207 | NS(=O)(=O)CS(=O)c1ccc(Cl)c(Cl)c1 (stereo not given) |
| 135 to 139 | CNC(=O)CNC(=O)c1cccc(-c2cccc3oc(Cc4cccc(C(F)(F)F)c4)cc23)c1 |
| 129 to 131 | CCOC(=O)c1c(N2CCOCC2)c2ccc(C)nc2n(CC)c1=O |
| 158 to 160 | Cc1nc2c(C=Cc3ccccc3)cccn2c1N=O |
| 191 to 193 | O=C(O)CN1C(=O)C(=CC2CC=CCC2)SC1=S (stereo not given) |
| 56 to 58 | O=c1c(Cc2ccccc2)coc2cc(OS(=O)(=O)C(F)(F)F)ccc12 |
| 148 to 150 | N#Cc1ccc(Cn2cncn2)cc1-c1ccc(Cl)c(OS(N)(=O)=O)c1 |
| 130 | C#CCn1cc(Cl)cnc1=O |
| 157 to 159 | Cc1ccc(Cl)cc1N1CN(C)CN(C)C1=S |

| melting point [°C] | Compound |
| --- | --- |
| 102 to 103 | CN1CCN(c2nc(Oc3ccccc3)c3ccccc3n2)CC1 |
| 119 | CCOC(=O)c1c(N2CCN(C(=O)c3ccco3)CC2)c2cc(F)cnc2n(Cc2ccccc2)c1=O |
| 52 to 54 | CCC(NC(Cc1cccnc1C)=NC#N)c1ccccc1 (stereo not given) |
| 97 to 99 | CCOC(=O)c1ccc(-n2cncn2)cc1 |
| 231 to 233 | Nc1ncnc2sc(Cc3ccccc3)c(-c3ccc([N+](=O)[O-])cc3)c12 |
| 239 | CC(C)(C)OC(=O)N1CC=C(C#Cc2ccc3c(c2)NC(=O)CC(c2cccc(C#N)c2)=N3)CC1 |
| 112 to 114 | Cc1cc(-c2cc(C(F)(F)F)nn2-c2ccc(S(C)(=O)=O)c(F)c2)ccc1-c1cscn1 |
| 73 to 75 | O=C(Cl)CCS(=O)(=O)CCCl |
| 92 to 93 | Cc1c(C)c2c(c(C)c1Br)C(=O)C(C)(C)O2 |
| 124 to 126 | CCC(CC)Nc1cc(C)nc2c1CCC(=O)N2c1c(C)cc(C)cc1C |
| 88 to 90 | O=Cc1ccc(OC(F)F)c([N+](=O)[O-])c1 |
| 120 to 122 | Cc1ccc(S(=O)(=O)OCC2Cc3cccc(C=Cc4ccccc4)c3O2)cc1 (stereo not given) |
| 169 | CCC(=S)NC[C@H]1CN(c2ccc(N3CCN(C(=O)CCC(=O)c4ccc(CN(C)C)cc4)CC3)c(F)c2)C(=O)O1 |
| 268 to 270 | O=C(O)c1ccc2c(c1)S(=O)(=O)c1ccccc1C=C2 |
| 131 to 135 | Nc1cc(Oc2ccc(NC(=O)Nc3ccc(-c4ccncc4)c(C(F)(F)F)c3)cc2)ncn1 |
| 148 to 161 | OCCCNc1nc2cc(C(F)(F)F)c(Br)cc2n2ccnc12 |
| 137 to 139 | CCOC(=O)c1cccc2c(=O)c(C)c(-c3ccc(OC)cc3)oc12 |
| 143 to 144 | O=C(OCCl)n1c(-c2cscn2)nc2ccccc21 |
| 177 to 179 | Cn1cc2c(Cl)cc(-c3ccccc3)nc2n1 |
| 41 to 42 | COC(=O)C1C(=O)CCC1CSc1ccccc1 (stereo not given) |
| 131 to 132 | COC(=O)c1cc(C)c(-c2cccc(OCc3ccc(COC(=O)c4ccccc4)c(COC(=O)c4ccccc4)c3)c2C)c(C)c1 |

| Compound | melting point [°C] |
| --- | --- |
| COCCn1c(C)cc(C(=O)c2cccc(Cl)c2)c1C | 112 to 113 |
| NN1CC1c1ccccc1 (stereo not given) | 60 |
| COC12CC(CNC(=S)NC(C)=O)CN(C)C1Cc1cn(C)c3cccc2c13 (stereo not given) | 170 to 172 |
| CN1Cc2cncn2-c2cccc(Cl)c2C1=O | 200 to 201 |
| CNC(=O)CN1CCC(C(O)(c2ccc(F)cc2)c2ccc(F)cc2)CC1 | 122 to 124 |
| CCCNCCc1ccc(NS(=O)(=O)c2ccc(Br)cc2)cc1 | 141 to 143 |
| N#Cc1coc(CBr)c1 | 40 to 45 |
